According to patent publication US20230241071A1, “COMBINATION TREATMENT OF LIVER DISORDERS” (Terns Pharmaceuticals, Inc., priority 2021, published 2023):

Assays:
THR-β = molecular target: T1, THR-β (Homo sapiens, UniProt P10828); assay: Binding activity to the thyroxine receptor beta; conditions: for THR-α/-β selectivity: ratio of binding IC50; for IC50: read-out: IC50 THR-β binding force
T1 sequence (P10828 1-461): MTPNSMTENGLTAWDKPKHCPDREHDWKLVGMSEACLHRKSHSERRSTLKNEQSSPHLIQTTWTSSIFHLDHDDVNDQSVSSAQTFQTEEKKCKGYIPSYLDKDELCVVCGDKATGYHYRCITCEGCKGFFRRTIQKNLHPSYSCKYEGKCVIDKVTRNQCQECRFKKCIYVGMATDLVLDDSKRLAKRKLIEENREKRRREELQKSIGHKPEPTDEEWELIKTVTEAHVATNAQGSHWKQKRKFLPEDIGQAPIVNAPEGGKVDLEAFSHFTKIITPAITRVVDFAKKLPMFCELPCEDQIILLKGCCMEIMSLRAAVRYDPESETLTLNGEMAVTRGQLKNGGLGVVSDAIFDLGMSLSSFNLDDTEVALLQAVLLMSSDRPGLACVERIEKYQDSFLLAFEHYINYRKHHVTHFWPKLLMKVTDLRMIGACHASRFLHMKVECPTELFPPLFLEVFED

[1] = Pharmacokinetic evaluation in SD rats; type: in vivo, rat; conditions: 2.0 mg/kg intragastric; for half-life: male, rat, plasma, po

Curve area [1]	Peak blood drug concentration [1]	Time to peak [1]	half-life [1]	SMILES	THR-α/-β selectivity (THR-β)	IC50 (THR-β)
12854 ± 961 ng·h/mL	1163 ± 97.1 ng/mL	5.3 ± 1.15 h	3.53 ± 0.42 h	CC(C)c1cc(Oc2c(Cl)cc(-n3nc(C#N)c(=O)[nH]c3=O)cc2Cl)n[nH]c1=O [Reference compound, 2-[3,5-Dichloro-4-(5-isopropyl-6-oxo-1,6-dihydropyridazin-3-yloxy)phenyl]-3,5-dioxo-2,3,4,5-tetrahydro[1,2,4]triazine-6-carbonitrile, reference compound]		
9242 ± 1245 ng·h/mL		5.33 ± 1.15 h	5.14 ± 0.83 h	CC1(C)CCc2c(Oc3c(Cl)cc(-n4cc(C#N)c(=O)[nH]c4=O)cc3Cl)n[nH]c(=O)c21 [Compound 6]		

The remaining lines, values behind:

SMILES	Curve area [1]	Peak blood drug concentration [1]	Time to peak [1]	half-life [1]	THR-α/-β selectivity (THR-β)	IC50 (THR-β)
N#Cc1nn(-c2cc(Cl)c(Oc3n[nH]c(=O)c4c(Cl)cccc34)c(Cl)c2)c(=O)[nH]c1=O [Compound 7]					>6.80 factor	1470 nM
O=c1cnn(-c2cc(Cl)c(Oc3n[nH]c(=O)c4ccccc34)c(Cl)c2)c(=O)[nH]1 [Compound 11]						262 nM
N#Cc1nn(-c2cc(Cl)c(Oc3n[nH]c(=O)c4c3CCCC4)c(Cl)c2)c(=O)[nH]c1=O [Compound 3]					>8.1 factor	1230 nM
